Measurements taken from US6710168B1, “Glycopeptide antibiotics, combinatorial libraries of glycopeptide antibiotics and methods of producing same” (The Trustees of the University of Princeton, priority 1999, dated 2004).
≈ marks a conversion by molar mass, not a printed value.

Legend:
Assay type in all cases: cell-based
[1] = system: Enterococcus faecium CL5137, VanA; experiment: MIC susceptibility test; conditions: Enterococcus faecium CL5137, VanA; read-out: MIC CL5137
[2] = system: gentamicin, streptmycin, vancomycin resistant Enterococcus faecalis (ATCC 51299); experiment: microbe, parasite or virus in culture; conditions: Enterococcus faecalis, ATCC51299, read-out: MIC VREF
Description: (§1) Evaluation of vancomycin analogs is performed using in vitro susceptibility tests and a time-kill assay. [NCCL Standard, 1993] In susceptibility tests, five strains of bacteria, two of the most important: Staphylococcus aureus and Enterococcus faecalis (both susceptible and resistant strains), and Bacillus cereus are chosen and bacteria viability remaining in each well is evaluated using a colorimetric assay based on the tetrazolium salt 3-(4,5-dimethyl-2-thiazolyl)-2,5-diphenyl-2H tetrazolium bromide (MTT) and minimum inhibitory concentration (MIC) values are determined as μg/mL. [Mosmann, T. (1983); Damour, O., et al. (1992); Mikami, Y., et al. (1994)] This assay gives susceptibility information quickly, efficiently, and clearly.
(§2) All strains [Bacillus cereus (ATCC® 11778), Staphylococcus aureus (ATCC® 29213), Methicillin resistant Staphylococcus aureus (ATCC® 33591), Enterococcus faecalis (ATCC® 29212), and gentamicin, streptmycin, vancomycin resistant Enterococcus faecalis (ATCC® 51299), are purchased from REMEL (Lenexa, Kans.).
(§3) MICs are determined by the microdilution method using 96-well microplates. Samples are suspended with Cation Adjusted (20 to 25 mg of Ca^2+/mL and 10 to […] of Mg^2+) Mueller-Hinton broth (Difco Laboratories, Detroit, Mich.) and are two-fold diluted from 5 μg/mL to […] on microplates (12 step dilution). To each well, which contained 100 μL of cell suspension (10^6 CFU/mL), 100 μL of antibiotic solution is added and the plates are incubated at 37° C. for 24 h. 50 μL of MTT solution (1 mg/mL) is added to each well, then the plates are incubated under the same conditions (incubation time; 30 min for Bacillus cereus, Staphylococcus aureus, and Methicillin resistant Staphylococcus aureus; 2 hours for Enterococcus faecalis and Gentamicin, Streptmycin, Vancomycin Enterococcus faecalis). MTT is a yellow tetrazolium salt that is reduced by mitochondrial enzymes in viable cells to an insoluble blue formazan product. MIC values are evaluated by observing the lowest drug concentration to inhibit bacteria growth.

[3] = system: Enterococcus faecalis CL5244, VanB; experiment: MIC susceptibility test; conditions: Enterococcus faecalis CL5244, VanB; read-out: MIC CL5244
Description: as §1, §3

[4] = system: Enterococcus faecalis (ATCC 29212); experiment: MIC susceptibility test, microdilution with MTT readout; conditions: Enterococcus faecalis ATCC29212; read-out: MIC EF
Description: as §1, §2, §3

[5] = system: Bacillus cereus (ATCC 11778); experiment: as above; conditions: Bacillus cereus, ATCC11778, read-out: MIC BC
Description: as §1, §2, §3

[6] = system: Methicillin resistant Staphylococcus aureus (ATCC 33591); experiment: as above; conditions: ATCC 3359 / ATCC 33591 / MRSA; Staphylococcus aureus ATCC3359, Methicillin resistance; read-out: MIC MRSA
Description: as §1, §2, §3

[7] = system: Staphylococcus aureus (ATCC 29213); experiment: as above; conditions: Staphylococcus aureus ATCC29213; read-out: MIC SA
Description: as §1, §2, §3

SMILES	MIC [1]	MIC [2]	MIC [3]	MIC [4]	MIC [5]	MIC [6]	MIC [7]
CN[C@@H](CC(C)C)C(=O)N[C@H]1C(=O)N[C@@H](CC(N)=O)C(=O)N[C@H]2C(=O)NC3C(=O)N[C@H](C(=O)N[C@@H](C(=O)O)c4cc(O)cc(O)c4-c4cc3ccc4O)[C@H](O)c3ccc(c(Cl)c3)Oc3cc2cc(c3OC2OC(CSc3nccc(N)n3)C(O)C(O)C2OC2CC(C)(N)C(O)C(C)O2)Oc2ccc(cc2Cl)[C@H]1O (stereo partly drawn) [LXI, Glucose-C6-2-thio-4-aminopyrimidine Vancomycin]	> 50 µg/mL	0.63 µg/mL (≈ 0.404 µM)	3.2 µg/mL (≈ 2.05 µM)	0.63 µg/mL (≈ 0.404 µM)	0.63 µg/mL (≈ 0.404 µM)	1.3 µg/mL (≈ 0.834 µM)	0.63 µg/mL (≈ 0.404 µM)
CN[C@@H](CC(C)C)C(=O)N[C@H]1C(=O)N[C@@H](CC(N)=O)C(=O)N[C@H]2C(=O)NC3C(=O)N[C@H](C(=O)N[C@@H](C(=O)O)c4cc(O)cc(O)c4-c4cc3ccc4O)[C@H](O)c3ccc(c(Cl)c3)Oc3cc2cc(c3OC2OC(CSc3nc(N)cc(N)n3)C(O)C(O)C2OC2CC(C)(N)C(O)C(C)O2)Oc2ccc(cc2Cl)[C@H]1O (stereo partly drawn) [LXII, Glucose-C6-6-thio-2,4-diaminopyrimidine Vancomycin]	> 50 µg/mL	1.3 µg/mL (≈ 0.826 µM)	6.3 µg/mL (≈ 4 µM)	1.3 µg/mL (≈ 0.826 µM)	0.63 µg/mL (≈ 0.4 µM)	2.5 µg/mL (≈ 1.59 µM)	1.9 µg/mL (≈ 1.21 µM)
CN[C@@H](CC(C)C)C(=O)N[C@H]1C(=O)N[C@@H](CC(N)=O)C(=O)N[C@H]2C(=O)NC3C(=O)N[C@H](C(=O)N[C@@H](C(=O)O)c4cc(O)cc(O)c4-c4cc3ccc4O)[C@H](O)c3ccc(c(Cl)c3)Oc3cc2cc(c3OC2OC(CSc3nc(N)cc(O)n3)C(O)C(O)C2OC2CC(C)(N)C(O)C(C)O2)Oc2ccc(cc2Cl)[C@H]1O (stereo partly drawn) [LXIII, Glucose-C6-2-thio-4-amino-6-hydroxypyrimidine Vancomycin]	> 50 µg/mL	> 5 µg/mL	6.3 µg/mL (≈ 4 µM)	2.5 µg/mL (≈ 1.59 µM)	5 µg/mL (≈ 3.18 µM)	> 5 µg/mL	5 µg/mL (≈ 3.18 µM)
CN[C@@H](CC(C)C)C(=O)N[C@H]1C(=O)N[C@@H](CC(N)=O)C(=O)N[C@H]2C(=O)NC3C(=O)N[C@H](C(=O)N[C@@H](C(=O)O)c4cc(O)cc(O)c4-c4cc3ccc4O)[C@H](O)c3ccc(c(Cl)c3)Oc3cc2cc(c3OC2OC(CSc3nnc(C)c(O)n3)C(O)C(O)C2OC2CC(C)(N)C(O)C(C)O2)Oc2ccc(cc2Cl)[C@H]1O (stereo partly drawn) [LXIV, Glucose-C6-2-thio-6-azathymine Vancomycin]	> 500 µg/mL	0.16 µg/mL (≈ 0.102 µM)	1.2 µg/mL (≈ 0.762 µM)	0.12 µg/mL (≈ 0.0762 µM)	0.08 µg/mL (≈ 0.0508 µM)	0.32 µg/mL (≈ 0.203 µM)	0.24 µg/mL (≈ 0.152 µM)
C=C1N[C@@H]2C(=O)N[C@@H](C(=O)O)c3cc(O)cc(O)c3-c3cc(ccc3O)C1NC(=O)[C@@H]1NC(=O)[C@H](CC(N)=O)NC(=O)[C@H](NC(=O)[C@H](CC(C)C)NC)[C@H](O)c3ccc(c(Cl)c3)Oc3cc1cc(c3OC1OC(CSc3nc(-c4ccccc4)c(-c4ccccc4)o3)C(O)C(O)C1OC1CC(C)(N)C(O)C(C)O1)Oc1ccc(cc1Cl)[C@H]2O (stereo partly drawn) [LXIX, Glucose-C6-2-thio-4,5-diphenyloxazole Vancomycin]	50 µg/mL (≈ 29.7 µM)	0.32 µg/mL (≈ 0.19 µM)	0.6 µg/mL (≈ 0.357 µM)	0.24 µg/mL (≈ 0.143 µM)	1.3 µg/mL (≈ 0.773 µM)	2.5 µg/mL (≈ 1.49 µM)	1.9 µg/mL (≈ 1.13 µM)
CN[C@@H](CC(C)C)C(=O)N[C@H]1C(=O)N[C@@H](CC(N)=O)C(=O)N[C@H]2C(=O)NC3C(=O)N[C@H](C(=O)N[C@@H](C(=O)O)c4cc(O)cc(O)c4-c4cc3ccc4O)[C@H](O)c3ccc(c(Cl)c3)Oc3cc2cc(c3OC2OC(CSc3nc4cc(OC)ccc4[nH]3)C(O)C(O)C2OC2CC(C)(N)C(O)C(C)O2)Oc2ccc(cc2Cl)[C@H]1O (stereo partly drawn) [LXV, Glucose-C6-2-thio-5-methoxybenzimidazole Vancomycin]	> 50 µg/mL	2.5 µg/mL (≈ 1.55 µM)	13 µg/mL (≈ 8.07 µM)	0.63 µg/mL (≈ 0.391 µM)	0.63 µg/mL (≈ 0.391 µM)	2.5 µg/mL (≈ 1.55 µM)	1.9 µg/mL (≈ 1.18 µM)
